# Measurements from ChEMBL document CHEMBL3774317, “Design and synthesis of novel tamoxifen analogues that avoid CYP2D6 metabolism” (Eur J Med Chem, 2016).
# How the values were obtained:
# [1] = Cytotoxicity against human HOP62 cells assessed as cell growth at 50 nM after 48 hrs by SRB assay; format: functional; conditions: HOP-62, 48 h, read-out: Activity
# [2] = Cytotoxicity against human Caki1 cells assessed as cell growth at 50 nM after 48 hrs by SRB assay; format: functional; conditions: CAKI-1, 48 h, read-out: Activity
# [3] = Cytotoxicity against human MOLT4 cells assessed as cell growth at 0.5 uM after 48 hrs by SRB assay; format: functional; conditions: MOLT-4, 48 h, read-out: Activity
# [4] = Cytotoxicity against human SNB19 cells assessed as cell growth at 50 uM after 48 hrs by SRB assay; format: functional; conditions: SNB-19, 48 h, read-out: Activity
# [5] = Metabolic stability in human liver microsomes assessed as remaining parent compound level at 10 uM measured immediately after compound addition in absence of NAPDH by LC/MS analysis; format: ADME; conditions: read-out: Drug metabolism
# NCI-H460 = test: Cytotoxicity against human NCI-H460 cells assessed as cell growth at 0.5 uM after 48 hrs by SRB assay; format: functional; conditions: NCI-H460, 48 h, read-out: Activity
# [6] = Cytotoxicity against human HCC2998 cells assessed as cell growth at 0.5 uM after 48 hrs by SRB assay; format: functional; conditions: HCC 2998, 48 h, read-out: Activity
# KM12 = test: Cytotoxicity against human KM12 cells assessed as cell growth at 0.5 uM after 48 hrs by SRB assay; format: functional; conditions: KM12, 48 h, read-out: Activity
# [7] = Cytotoxicity against human SF539 cells assessed as cell growth at 0.5 uM after 48 hrs by SRB assay; format: functional; conditions: SF-539, 48 h, read-out: Activity
# [8] = Cytotoxicity against human SNB75 cells assessed as cell growth at 0.5 uM after 48 hrs by SRB assay; format: functional; conditions: SNB-75, 48 h, read-out: Activity
# M14 [9] = test: Cytotoxicity against human M14 cells assessed as cell growth at 0.5 uM after 48 hrs by SRB assay; format: functional; conditions: M14, 48 h, read-out: Activity
# [10] = Cytotoxicity against human SKOV3 cells assessed as cell growth at 0.5 uM after 48 hrs by SRB assay; format: functional; conditions: SK-OV-3, 48 h, read-out: Activity
# ACHN [11] = test: Cytotoxicity against human ACHN cells assessed as cell growth at 0.5 uM after 48 hrs by SRB assay; format: functional; conditions: read-out: Activity
# SN12C = test: Cytotoxicity against human SN12C cells assessed as cell growth at 0.5 uM after 48 hrs by SRB assay; format: functional; conditions: read-out: Activity
# [12] = Cytotoxicity against human RPMI8226 cells assessed as cell growth at 5 nM after 48 hrs by SRB assay; format: functional; conditions: RPMI-8226, 48 h, read-out: Activity
# [13] = Cytotoxicity against human SW620 cells assessed as cell growth at 5 nM after 48 hrs by SRB assay; format: functional; conditions: SW-620, 48 h, read-out: Activity
# Malme-3M [14] = test: Cytotoxicity against human MALME-3M cells assessed as cell growth at 5 nM after 48 hrs by SRB assay; format: functional; conditions: read-out: Activity
# SK-MEL-28 [15] = test: Cytotoxicity against human SK-MEL-28 cells assessed as cell growth at 5 nM after 48 hrs by SRB assay; format: functional; conditions: SK-MEL-28, 48 h, read-out: Activity
# [16] = Cytotoxicity against human OVCAR4 cells assessed as cell growth at 5 nM after 48 hrs by SRB assay; format: functional; conditions: OVCAR-4, 48 h, read-out: Activity
# MCF7 [17] = test: Cytotoxicity against human MCF7 cells assessed as cell growth at 5 nM after 48 hrs by SRB assay; format: functional; conditions: MCF7, 48 h, read-out: Activity
# [18] = Cytotoxicity against human HCT15 cells assessed as cell growth at 5 uM after 48 hrs by SRB assay; format: functional; conditions: HCT-15, 48 h, read-out: Activity
# MDA-MB-435 = test: Cytotoxicity against human MDA-MB-435 cells assessed as cell growth at 5 uM after 48 hrs by SRB assay; format: functional; conditions: MDA-MB-435, 48 h, read-out: Activity
# [19] = Cytotoxicity against human OVCAR4 cells assessed as cell growth at 5 uM after 48 hrs by SRB assay; format: functional; conditions: OVCAR-4, 48 h, read-out: Activity
# [20] = Cytotoxicity against human OVCAR8 cells assessed as cell growth at 5 uM after 48 hrs by SRB assay; format: functional; conditions: OVCAR-8, 48 h, read-out: Activity
# [21] = Cytotoxicity against human Caki1 cells assessed as cell growth at 5 uM after 48 hrs by SRB assay; format: functional; conditions: CAKI-1, 48 h, read-out: Activity
# MCF7 [22] = test: Cytotoxicity against human MCF7 cells assessed as cell growth at 5 uM after 48 hrs by SRB assay; format: functional; conditions: MCF7, 48 h, read-out: Activity
# K562 = test: Cytotoxicity against human K562 cells assessed as cell growth at 50 uM after 48 hrs by SRB assay; format: functional; conditions: K562, 48 h, read-out: Activity
# Malme-3M [23] = test: Cytotoxicity against human MALME-3M cells assessed as cell growth at 10^-7 M after 48 hrs by SRB assay; format: functional; conditions: read-out: Activity
# [24] = Cytotoxicity against human OVCAR5 cells assessed as cell growth at 10^-7 M after 48 hrs by SRB assay; format: functional; conditions: OVCAR-5, 48 h, read-out: Activity
# ACHN [25] = test: Cytotoxicity against human ACHN cells assessed as cell growth at 10^-4 M after 48 hrs by SRB assay; format: functional; conditions: read-out: Activity
# [26] = Cytotoxicity against human MOLT4 cells assessed as cell growth at 10^-8 M after 48 hrs by SRB assay; format: functional; conditions: MOLT-4, 48 h, read-out: Activity
# A549 = test: Cytotoxicity against human A549 cells assessed as cell growth at 10^-8 M after 48 hrs by SRB assay; format: functional; conditions: A549, 48 h, read-out: Activity
# [27] = Cytotoxicity against human PC3 cells assessed as cell growth at 10^-6 M after 48 hrs by SRB assay; format: functional; conditions: PC-3, 48 h, read-out: Activity
# M14 [28] = test: Cytotoxicity against human M14 cells assessed as cell growth at 10^-5 M after 48 hrs by SRB assay; format: functional; conditions: M14, 48 h, read-out: Activity
# [29] = Cytotoxicity against human SW620 cells assessed as cell growth at 10^-8 M after 48 hrs by SRB assay; format: functional; conditions: SW-620, 48 h, read-out: Activity
# SK-MEL-28 [30] = test: Cytotoxicity against human SK-MEL-28 cells assessed as cell growth at 10^-8 M after 48 hrs by SRB assay; format: functional; conditions: SK-MEL-28, 48 h, read-out: Activity
# [31] = Cytotoxicity against human NCI-ADR-RES cells assessed as cell growth at 10^-8 M after 48 hrs by SRB assay; format: functional; conditions: read-out: Activity
# [32] = Cytotoxicity against human TK10 cells assessed as cell growth at 10^-8 M after 48 hrs by SRB assay; format: functional; conditions: TK-10, 48 h, read-out: Activity
# NCI-H226 = test: Cytotoxicity against human NCI-H226 cells assessed as cell growth at 10^-7 M after 48 hrs by SRB assay; format: functional; conditions: NCI-H226, 48 h, read-out: Activity
# [33] = Cytotoxicity against human RPMI8226 cells assessed as cell growth at 10^-4 M after 48 hrs by SRB assay; format: functional; conditions: RPMI-8226, 48 h, read-out: Activity
# [34] = Cytotoxicity against human HOP62 cells assessed as cell growth at 10^-4 M after 48 hrs by SRB assay; format: functional; conditions: HOP-62, 48 h, read-out: Activity
# HT-29 = test: Cytotoxicity against human HT-29 cells assessed as cell growth at 10^-4 M after 48 hrs by SRB assay; format: functional; conditions: HT-29, 48 h, read-out: Activity
smiles,measurement,setting,value
CCCCCCCCCC(=O)Oc1ccc(/C(=C(/C)c2ccccc2)c2ccc(OCCN3CCCC3)cc2)cc1,growth at 0.05 µM,[1],95%
same,growth at 0.05 µM,[2],82%
same,growth at 0.5 µM,[3],63%
same,growth at 50 µM,[4],-77%
same,"remaining at 0 h, 10 µM",[5],82%
same,growth at 0.5 µM,NCI-H460,78%
same,growth at 0.5 µM,[6],88%
same,growth at 0.5 µM,KM12,76%
same,growth at 0.5 µM,[7],72%
same,growth at 0.5 µM,[8],68%
same,growth at 0.5 µM,M14 [9],42%
same,growth at 0.5 µM,[10],83%
same,growth at 0.5 µM,ACHN [11],88%
same,growth at 0.5 µM,SN12C,88%
same,growth at 0.005 µM,[12],99%
same,growth at 0.005 µM,[13],96%
same,growth at 0.005 µM,Malme-3M [14],108%
same,growth at 0.005 µM,SK-MEL-28 [15],104%
same,growth at 0.005 µM,[16],100%
same,growth at 0.005 µM,MCF7 [17],45%
same,growth at 5 µM,[18],72%
same,growth at 5 µM,MDA-MB-435,82%
same,growth at 5 µM,[19],78%
same,growth at 5 µM,[20],95%
same,growth at 5 µM,[21],71%
same,growth at 5 µM,MCF7 [22],36%
same,growth at 50 µM,K562,-70%
C/C(=C(/c1ccc(O)cc1)c1ccc(OCCN2CCCC2)cc1)c1ccccc1,growth at 0.1 µM,Malme-3M [23],91%
same,growth at 0.1 µM,[24],90%
same,growth at 100 µM,ACHN [25],-91%
same,growth at 0.01 µM,[26],102%
same,growth at 0.01 µM,A549,99%
same,growth at 1 µM,[27],103%
same,growth at 10 µM,M14 [28],-58%
same,growth at 0.01 µM,[29],102%
same,growth at 0.01 µM,SK-MEL-28 [30],90%
same,growth at 0.01 µM,[31],99%
same,growth at 0.01 µM,[32],96%
same,growth at 0.1 µM,NCI-H226,95%
same,growth at 100 µM,[33],-57%
same,growth at 100 µM,[34],-86%
same,growth at 100 µM,HT-29,-91%
